Data taken from patent EP4707280A1, “1,4-CINEOLE DERIVATIVE AND INTERMEDIATE THEREOF, HERBICIDE CONTAINING SAID DERIVATIVE AS ACTIVE INGREDIENT, METHOD FOR USING HERBICIDE, AND METHOD FOR PREPARING AGROCHEMICAL COMPOSITION” (HOKKO CHEMICAL INDUSTRY CO., LTD., priority 2023, dated 2024).

How the values were obtained:
Assay type in all cases: in vivo
[1] = system: Digitaria ciliaris; assay: Test Example 8: herbicidal effect test by stem and leaf treatment in upland field (low dose); conditions: Digitaria ciliaris; 7.5 g per 10 ares; sprayed seven days after sowing, upland soil; 14 days after application; read-out: weed inhibition rate
[2] = system: Echinochloa crus-galli; assay: as above; conditions: Echinochloa crus-galli; 7.5 g per 10 ares; sprayed seven days after sowing, upland soil; 14 days after application; read-out: weed inhibition rate
[3] = system: Echinochloa crus-galli var. formosensis; assay: Test Example 5: herbicidal effect test by soil application in paddy rice (low dose); conditions: Echinochloa crus-galli, soil, 336 h; 7.5 g per 10 ares; applied immediately after sowing, flooded pots; 14 days after application; read-out: weed inhibition rate
Summary of the method: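 7.5 g a.i./10 a applied by dropper into ~3 cm floodwater immediately post-sowing (seeds 0–1 cm, 30 per species; puddled fertilized paddy soil, glasshouse). Duplicates; day-14 inhibition %.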

[4] = system: Echinochloa crus-galli; assay: Test Example 4: herbicidal effect test by stem and leaf treatment in upland field; conditions: Echinochloa crus-galli; 120 g per 10 ares; sprayed seven days after sowing, upland soil; 14 days after application; read-out: weed inhibition rate
[5] = system: Digitaria ciliaris; assay: Test Example 7: herbicidal effect test by soil application in upland field (low dose); conditions: Digitaria ciliaris, 7.5 g per 10 ares, sprayed one day after sowing, 14 days after application, read-out: weed inhibition rate
Summary of the method: (§1)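 Duplicate pots of alluvial loam, seeds incorporated in the surface 1 cm. Soil surface sprayed 1 d after sowing (EC in water, 100 L/10 a; 7.5 g a.i./10 a). Endpoint: % inhibition, day 14.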

[6] = system: Echinochloa crus-galli; assay: as above; conditions: Echinochloa crus-galli, 7.5 g per 10 ares, sprayed one day after sowing, 14 days after application, read-out: weed inhibition rate
Summary of the method: as §1

[7] = system: Digitaria ciliaris; assay: Test Example 4: herbicidal effect test by stem and leaf treatment in upland field; conditions: Digitaria ciliaris; 120 g per 10 ares; sprayed seven days after sowing, upland soil; 14 days after application; read-out: weed inhibition rate
[8] = system: Scirpus juncoides; assay: Test Example 1: herbicidal effect test by soil application in paddy rice; conditions: Schoenoplectiella juncoides, soil, 336 h; 120 g active ingredient per 10 ares; applied immediately after sowing, flooded pots; 14 days after application; read-out: weed inhibition rate
Summary of the method: (§2)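 Paddy soil in Wagner pots (1/10,000 acre) was fertilized (N:P:K 16:16:16) and puddled, then weed seeds were sown 0–1 cm deep, 30 each. Pots were flooded to ~3 cm and kept in a glass greenhouse. Emulsifiable concentrate diluted in water was dropped on immediately after sowing at 120 g a.i. per 10 ares.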

[9] = system: Echinochloa crus-galli var. formosensis; assay: as above; conditions: Echinochloa crus-galli, soil, 336 h; 120 g active ingredient per 10 ares; applied immediately after sowing, flooded pots; 14 days after application; read-out: weed inhibition rate
Summary of the method: as §2

[10] = system: Echinochloa crus-galli var. formosensis; assay: Test Example 6: herbicidal effect test by application during growth period of paddy rice (low dose); conditions: Echinochloa crus-galli; 7.5 g per 10 ares; applied seven days after sowing, flooded pots; 14 days after application; read-out: weed inhibition rate
Summary of the method: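 Paddy soil in flooded Wagner pots (about 3 cm water), weeds sown at 0–1 cm, 30 seeds each, grown in a glass greenhouse. Seven days after sowing, water-diluted emulsifiable concentrate was dropped into the water at 7.5 g active ingredient per 10 ares. Weed inhibition rate (%) was scored 14 days after application, in duplicate.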

[11] = system: Scirpus juncoides; assay: Test Example 2: herbicidal effect test by application during growth period of paddy rice; conditions: Schoenoplectiella juncoides; 120 g per 10 ares; applied seven days after sowing, flooded pots; 14 days after application; read-out: weed inhibition rate
Summary of the method: (§3)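 Greenhouse pots of flooded paddy soil, seeded shallowly with 30 seeds per weed, are treated on day 7 by dropper with diluted emulsifiable concentrate equal to 120 g a.i./10 a. Duplicate pots are scored for inhibition rate 14 days post-application.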

[12] = system: Echinochloa crus-galli var. formosensis; assay: as above; conditions: Echinochloa crus-galli; 120 g per 10 ares; applied seven days after sowing, flooded pots; 14 days after application; read-out: weed inhibition rate
Summary of the method: as §3

[13] = system: Digitaria ciliaris; assay: Test Example 3: herbicidal effect test by soil application in upland field; conditions: Digitaria ciliaris, 120 g per 10 ares, sprayed one day after sowing, 14 days after application, read-out: weed inhibition rate
Summary of the method: (§4)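 Pre-emergence test: seeds mixed into top 1 cm of alluvial loam upland soil in pots; emulsifiable concentrate diluted in water sprayed on soil one day after sowing at 100 L/10 a, 120 g a.i./10 a. Weed inhibition rate (%) scored at 14 days, in duplicate.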

[14] = system: Echinochloa crus-galli; assay: as above; conditions: Echinochloa crus-galli, 120 g per 10 ares, sprayed one day after sowing, 14 days after application, read-out: weed inhibition rate
Summary of the method: as §4

CC(C)=CCOC1CC2(C(C)C)OC1(C)CC2I (stereo not shown) [1-1400, 5-iodo-1-methyl-2-(3-methylbut-2-enoxy)-4-isopropyl-7-oxabicyclo[2.2.1]heptane]
≥ 80%: inhibition at 75 g/ha [1] | inhibition at 75 g/ha [2] | inhibition at 75 g/ha [3] | inhibition at 1200 g/ha [4] | inhibition at 75 g/ha [5] | inhibition at 75 g/ha [6] | inhibition at 1200 g/ha [7] | pest or weed control at 1200 g/ha [8] | pest or weed control at 1200 g/ha [9] | inhibition at 75 g/ha [10] | inhibition at 1200 g/ha [11] | inhibition at 1200 g/ha [12] | inhibition at 1200 g/ha [13] | inhibition at 1200 g/ha [14]

CC#CCOC1CC2(C(C)C)OC1(C)CC2I (stereo not shown) [1-1402, 5-but-2-ynoxy-2-iodo-1-isopropyl-4-methyl-7-oxabicyclo[2.2.1]heptane]
≥ 80%: inhibition at 75 g/ha [1] | inhibition at 75 g/ha [2] | inhibition at 75 g/ha [3] | inhibition at 1200 g/ha [4] | inhibition at 75 g/ha [5] | inhibition at 75 g/ha [6] | inhibition at 1200 g/ha [7] | pest or weed control at 1200 g/ha [8] | pest or weed control at 1200 g/ha [9] | inhibition at 75 g/ha [10] | inhibition at 1200 g/ha [11] | inhibition at 1200 g/ha [12] | inhibition at 1200 g/ha [13] | inhibition at 1200 g/ha [14]

CC(C)C12CC(OCc3ccccc3)C(C)(CC1I)O2 (stereo not shown) [1-1408, 5-iodo-1-methyl-2-phenylmethoxy-4-isopropyl-7-oxabicyclo[2.2.1]heptane]
≥ 80%: inhibition at 75 g/ha [1] | inhibition at 75 g/ha [2] | inhibition at 75 g/ha [3] | inhibition at 1200 g/ha [4] | inhibition at 75 g/ha [5] | inhibition at 75 g/ha [6] | inhibition at 1200 g/ha [7] | pest or weed control at 1200 g/ha [8] | pest or weed control at 1200 g/ha [9] | inhibition at 75 g/ha [10] | inhibition at 1200 g/ha [11] | inhibition at 1200 g/ha [12] | inhibition at 1200 g/ha [13] | inhibition at 1200 g/ha [14]

Cc1ccccc1COC1CC2(C(C)C)OC1(C)CC2I (stereo not shown) [1-1409, 5-iodo-1-methyl-2-[(2-methylphenyl)methoxy]-4-isopropyl-7-oxabicyclo[2.2.1]heptane]
≥ 80%: inhibition at 75 g/ha [1] | inhibition at 75 g/ha [2] | inhibition at 75 g/ha [3] | inhibition at 1200 g/ha [4] | inhibition at 75 g/ha [5] | inhibition at 75 g/ha [6] | inhibition at 1200 g/ha [7] | pest or weed control at 1200 g/ha [8] | pest or weed control at 1200 g/ha [9] | inhibition at 75 g/ha [10] | inhibition at 1200 g/ha [11] | inhibition at 1200 g/ha [12] | inhibition at 1200 g/ha [13] | inhibition at 1200 g/ha [14]

COc1ccccc1COC1CC2(C(C)C)OC1(C)CC2I (stereo not shown) [1-1415, 5-iodo-2-[(2-methoxyphenyl)methoxy]-1-methyl-4-isopropyl-7-oxabicyclo[2.2.1]heptane]
≥ 80%: inhibition at 75 g/ha [1] | inhibition at 75 g/ha [2] | inhibition at 75 g/ha [3] | inhibition at 1200 g/ha [4] | inhibition at 75 g/ha [5] | inhibition at 75 g/ha [6] | inhibition at 1200 g/ha [7] | pest or weed control at 1200 g/ha [8] | pest or weed control at 1200 g/ha [9] | inhibition at 75 g/ha [10] | inhibition at 1200 g/ha [11] | inhibition at 1200 g/ha [12] | inhibition at 1200 g/ha [13] | inhibition at 1200 g/ha [14]

CC(C)C12CC(OCc3ccccc3F)C(C)(CC1I)O2 (stereo not shown) [1-1421, 2-[(2-fluorophenyl)methoxy]-5-iodo-1-methyl-4-isopropyl-7-oxabicyclo[2.2.1]heptane]
≥ 80%: inhibition at 75 g/ha [1] | inhibition at 75 g/ha [2] | inhibition at 75 g/ha [3] | inhibition at 1200 g/ha [4] | inhibition at 75 g/ha [5] | inhibition at 75 g/ha [6] | inhibition at 1200 g/ha [7] | pest or weed control at 1200 g/ha [8] | pest or weed control at 1200 g/ha [9] | inhibition at 75 g/ha [10] | inhibition at 1200 g/ha [11] | inhibition at 1200 g/ha [12] | inhibition at 1200 g/ha [13] | inhibition at 1200 g/ha [14]

CC(C)C12CC(OCc3ccccc3Cl)C(C)(CC1I)O2 (stereo not shown) [1-1424, 5-[(2-chlorophenyl)methoxy]-2-iodo-1-isopropyl-4-methyl-7-oxabicyclo[2.2.1]heptane]
≥ 80%: inhibition at 75 g/ha [1] | inhibition at 75 g/ha [2] | inhibition at 75 g/ha [3] | inhibition at 1200 g/ha [4] | inhibition at 75 g/ha [5] | inhibition at 75 g/ha [6] | inhibition at 1200 g/ha [7] | pest or weed control at 1200 g/ha [8] | pest or weed control at 1200 g/ha [9] | inhibition at 75 g/ha [10] | inhibition at 1200 g/ha [11] | inhibition at 1200 g/ha [12] | inhibition at 1200 g/ha [13] | inhibition at 1200 g/ha [14]

CC(C)C12CC(OCc3ccccc3Br)C(C)(CC1I)O2 (stereo not shown) [1-1427, 5-[(2-bromophenyl)methoxy]-2-iodo-1-isopropyl-4-methyl-7-oxabicyclo[2.2.1]heptane]
≥ 80%: inhibition at 75 g/ha [1] | inhibition at 75 g/ha [2] | inhibition at 75 g/ha [3] | inhibition at 1200 g/ha [4] | inhibition at 75 g/ha [5] | inhibition at 75 g/ha [6] | inhibition at 1200 g/ha [7] | pest or weed control at 1200 g/ha [8] | pest or weed control at 1200 g/ha [9] | inhibition at 75 g/ha [10] | inhibition at 1200 g/ha [11] | inhibition at 1200 g/ha [12] | inhibition at 1200 g/ha [13] | inhibition at 1200 g/ha [14]
